Like-named read-outs stand apart in the source and are kept apart here.

This experiment deals with NSP14 (Severe acute respiratory syndrome coronavirus 2, UniProt P0DTD1). Briefly: NSP14 MTase inhibition assay at 37° C. (MTase-Glo SAH detection). In kind it is biochemical, SARS-CoV-2. The following applies: 0.3 nM NSP14, 2.5 μM SAM, 2.5 μM GpppA RNA, read-out: Nsp14 Mtase Inh. IC50. As to the method:
NSP14 MTase assay at 37° C. (0.3 nM NSP14 as final enzyme concentration)
The NSP14 MTase assay at 37° C. is carried out in 384-well flat bottom polystyrene microplates (Greiner, 781075). Per well, 10 μl of 1×NSP14 reaction buffer (50 mM Tris-HCl, pH 7.5, 6 mM KCl, 1.25 mM MgCl2, 1 mM DTT, and 0.01% Tween-20) are dispensed in columns 1-23 using a Thermo Multidrop Combi dispenser (Thermo Scientific). 0.1 μl of serially diluted compounds in DMSO are dispensed into columns 1-22 of the assay microplates with a Janus 384 MDT NanoHead (PerkinElmer). In wells of column 23, which serve as negative controls, no compounds are added.
The NSP14 reaction is started by adding 4 μl of a 4× substrate solution containing S-adenosyl methionine (SAM, 10 μM) and GpppA RNA (10 μM) prepared in 1×NSP14 reaction buffer. Any addition of reagents is followed by a 30 second centrifugation at 500×g to ensure that all liquid was collected at the bottom of the well. The final concentrations of NSP14, SAM, and GpppA RNA are 0.3 nM, 2.5 μM, and 2.5 μM, respectively. The final reaction volume is 16 μl. Plates are sealed and incubated for 45 min at 37° C.
For SAH detection, 1 μl 5× MTase-Glo™ Reagent (Promega) is added to each well, plates are mixed for 1-2 minutes and incubated at room temperature for 30 minutes. 5 μl of room-temperature MTase-Glo™ Detection Solution (Promega) is added to each well, plates are mixed for 1-2 minutes and incubated at room temperature for 30 minutes. Luminescence signals of each well are recorded in relative light units (RLUs) using a Biotek Synergy Neo plate reader (BioTek, Winooski, VT). The SAH production is normalized against the positive control (PK, column 24) and negative control (NK, column 23) as follows: normalized % inhibition=100×(RLUsample-RLUaverageNK)/(RLUaveragePK-RLUaverageNK).

For orientation: IC50 means the concentration that gives 50% inhibition. Take `COc1nccc(F)c1CNC(=O)c1cc(S(=O)(=O)c2ccc3[nH]ncc3c2)c(C)n1C` [B.112]: the IC50 (37° C.) was < 0.15 nM.

For `Cc1c(S(=O)(=O)c2ccc3[nH]ncc3c2)cc(C(=O)NCc2ccccc2F)n1C` [B.76], the IC50 (37° C.) was found to be 1.6 nM.

Take `Cc1c(S(=O)(=O)c2ccc3[nH]ncc3c2)cc(C(=O)NCc2c(Cl)cccc2Cl)n1C` [B.84]: the IC50 (37° C.) turned out to be 0.18 nM.

For the compound `Cc1c(S(=O)(=O)c2ccc3[nH]ncc3c2)cc(C(=O)NC2CCc3cc(C(F)(F)F)ccc32)n1C` (racemic) [B.71], the IC50 (37° C.) turned out to be 36 nM.

For the compound `Cc1c(S(=O)(=O)c2ccc3[nH]ncc3c2)cc(C(=O)N[C@@H]2CCN(c3cc(F)cc(F)c3)C2)n1C` [A.96], the IC50 (45 min at 37° C.) amounted to 0.85 nM.

Turning to `Cc1c(S(=O)(=O)c2ccc3[nH]ncc3c2)cc(C(=O)NC2CCCN(c3ncc(F)cn3)C2)n1C` (stereo not shown) [A.77], under “45 min at 37° C.”, the IC50 is 7.9 nM.

As for `Cc1c(S(=O)(=O)c2ccc3[nH]ncc3c2)cc(C(=O)N[C@@H]2CCN(c3ccncn3)C2)n1C` [A.93], where the note is “45 min at 37° C.”, the 50% inhibitory concentration (IC50) was determined as 0.2 nM.

Consider `Cc1c(S(=O)(=O)c2ccc3[nH]ncc3c2)cc(C(=O)N[C@@H]2CCN(c3ccc(F)nc3)C2)n1C` [A.56], for which the half-inhibitory concentration (IC50) (45 min at 37° C.) amounted to 0.2 nM.

For `Cc1c(S(=O)(=O)c2ccc3[nH]ncc3c2)cc(C(=O)NCc2c(F)ccc3c2CCCO3)n1C` [B.57], where the note is “37° C.”, the IC50 is < 0.15 nM.

`Cc1c(S(=O)(=O)c2ccc3[nH]ncc3c2)cc(C(=O)NCc2ccnn2CC(F)F)n1C` [B.162]: the half-maximal inhibitory concentration (IC50) (37° C.) was 2.2 nM.

Take `Cc1c(S(=O)(=O)c2ccc3[nH]ncc3c2)cc(C(=O)NCc2ccn3nccc3c2)n1C` [B.141]: the IC50 (37° C.) stood at 16 nM.

With `Cc1c(S(=O)(=O)c2ccccc2)cc(C(=O)NCc2cccnc2N2CCCC2)n1C` [A.22], the 50% inhibitory concentration (IC50) (45 min at 37° C.) was 67 nM.

Regarding `Cc1c(S(=O)(=O)c2ccc3[nH]ncc3c2)cc(C(=O)N[C@@H]2CCN(c3ccc(C#N)cn3)C2)n1C` [A.72], the IC50 (45 min at 37° C.) amounted to 0.29 nM.

For `Cc1c(S(=O)(=O)c2ccc3[nH]ncc3c2)cc(C(=O)N[C@@H]2CCN(c3nccc(C(F)F)n3)C2)n1C` [A.122], the IC50 (45 min at 37° C.) came to 0.3 nM.

Take `Cc1c(S(=O)(=O)c2ccc3c(cnn3C)c2)cc(C(=O)NCc2c(F)ccc3cnn(C4CC4)c23)n1CCCC#N` [B.61]: the IC50 (37° C.) was determined as 2.6 nM.

With `Cc1c(S(=O)(=O)c2ccc3[nH]ncc3c2)cc(C(=O)NCc2cc(F)cc3cn(C)nc23)n1C` [B.97], the half-inhibitory concentration (IC50) (37° C.) stood at 11 nM.

In the case of `Cc1c(S(=O)(=O)c2ccc3[nH]ncc3c2)cc(C(=O)NCc2ccn(C(F)F)n2)n1C` [B.160], under “37° C.”, the half-inhibitory concentration (IC50) stood at 149 nM.

Take `Cc1c(S(=O)(=O)c2ccc3[nH]ncc3c2)cc(C(=O)NCc2cccc3c2N(C)C(=O)C3(F)F)n1C` [B.26]: under “37° C.”, the 50% inhibitory concentration (IC50) is 0.49 nM.

In the case of `Cc1c(S(=O)(=O)c2ccc3[nH]ncc3c2)cc(C(=O)N[C@@H]2CCN(c3nccc(C#N)n3)C2)n1C` [A.45], where the note is “45 min at 37° C.”, the half-maximal inhibitory concentration (IC50) stood at 0.37 nM.

`Cc1c(S(=O)(=O)c2ccc3[nH]ncc3c2)cc(C(=O)NCc2ccc3ncnn3c2)n1C` [B.149]: the IC50 (37° C.) was determined as 18 nM.

`Cc1c(S(=O)(=O)c2ccc3[nH]ncc3c2)cc(C(=O)NC2CCc3c(F)ccc(F)c32)n1C` (racemic) [B.70]: the half-inhibitory concentration (IC50) (37° C.) worked out at 0.95 nM.

Consider `Cc1c(S(=O)(=O)c2ccc3[nH]ncc3c2)cc(C(=O)NC2CN(c3ncc(F)cn3)C2)n1C` [A.36], for which, under “45 min at 37° C.”, the concentration for half-maximal inhibition (IC50) came out at 2.2 nM.

With `Cc1c(S(=O)(=O)c2ccc3[nH]ncc3c2)cc(C(=O)NCc2cn(C)c(=O)cn2)n1C` [B.156], the IC50 (37° C.) turned out to be 6 nM.

As for `Cc1c(S(=O)(=O)c2ccc3[nH]ncc3c2)cc(C(=O)NCc2cccc3cnn(C4CC4)c23)n1C` [A.5], the IC50 (45 min at 37° C.) was determined as 1.5 nM.

`Cc1c(S(=O)(=O)c2ccc3[nH]ncc3c2)cc(C(=O)NCc2cccc3c2N(C)C(=O)C32CC2)n1C` [B.32]: where the note is “37° C.”, the half-maximal inhibitory concentration (IC50) was found to be 0.18 nM.

As to `Cc1c(S(=O)(=NCC2CC2)c2ccc3[nH]ncc3c2)cc(C(=O)N[C@@H]2CCN(c3ncc(F)cn3)C2)n1C` (stereo partly shown) [A.69], the IC50 (45 min at 37° C.) is 8.7 nM.

As for `Cc1c(S(=O)(=O)c2ccc3c(c2)CC(=O)N3)cc(C(=O)NCc2cccc3cnn(C)c23)n1C` [B.5], the IC50 (37° C.) amounted to 8.7 nM.

Take `Cc1c(S(=O)(=O)c2ccc3[nH]ncc3c2)cc(C(=O)N[C@@H]2CCN(c3cccc(F)c3)C2)n1C` [A.87]: the concentration for half-maximal inhibition (IC50) (45 min at 37° C.) is 0.75 nM.

Take `Cc1c(S(=O)(=O)c2ccc3[nH]nc(F)c3c2)cc(C(=O)N[C@@H]2CCN(c3ncc(F)cn3)C2)n1C` [A.39]: the IC50 (45 min at 37° C.) is < 0.15 nM.

Take `Cc1c(S(=O)(=O)c2ccc3[nH]ncc3c2)cc(C(=O)NCc2c(Cl)ccc(=O)n2C)n1C` [B.174]: the half-maximal inhibitory concentration (IC50) (37° C.) was 0.7 nM.

In the case of `O=C(NCc1c(F)ccc2ncn(C3CC3)c12)c1cc(S(=O)(=O)c2cc(F)c3[nH]ncc3c2)c2n1CCC2` [B.90], the half-maximal inhibitory concentration (IC50) (37° C.) is 0.21 nM.

Consider `Cc1c(S(=O)(=O)c2ccc3[nH]ncc3c2)cc(C(=O)N[C@@H]2CCN(c3ncncc3C#N)C2)n1C` [A.121], for which the half-maximal inhibitory concentration (IC50) (45 min at 37° C.) was determined as 0.3 nM.

Regarding `Cc1c(S(=O)(=O)c2cc(C#N)c3[nH]ncc3c2)cc(C(=O)N[C@@H]2CCN(c3ncc(F)cn3)C2)n1C` [A.63], the half-maximal inhibitory concentration (IC50) (45 min at 37° C.) came out at 0.46 nM.

Turning to `Cc1c(S(=O)(=O)c2ccc3[nH]ncc3c2)cc(C(=O)N[C@@H]2CCN(c3nccnc3C#N)C2)n1C` [A.120], the IC50 (45 min at 37° C.) amounted to 0.26 nM.

Consider `Cc1cc(S(=O)(=O)c2cc(C(=O)NCc3c(F)ccnc3N3CCC(C)(C(=O)O)C3)n(C)c2C)cc2cnn(C)c12` (racemic) [B.127], for which, where the note is “37° C.”, the IC50 is 0.58 nM.

As to `Cc1c(S(=O)(=O)c2ccc3[nH]ncc3c2)cc(C(=O)NCc2c[nH]c(=O)c3cnn(C)c23)n1C` [B.115], the half-maximal inhibitory concentration (IC50) (37° C.) stood at 0.17 nM.

For the compound `Cc1c(S(=O)(=O)c2ccc3[nH]ncc3c2)cc(C(=O)N[C@@H]2CCN(c3ccc(C#N)c(C#N)c3)C2)n1C` [A.108], for the setting “45 min at 37° C.”, the IC50 is < 0.15 nM.

For `Cc1c(S(=O)(=O)c2ccc3[nH]ncc3c2)cc(C(=O)NCc2c(F)cc[nH]c2=O)n1C` [B.113], the concentration for half-maximal inhibition (IC50) (37° C.) is 0.34 nM.

For `Cc1c(S(=O)(=O)c2cc(Cl)c3[nH]ncc3c2)cc(C(=O)NCc2cccc3cnn(C4CC4)c23)n1C` [B.51], the half-inhibitory concentration (IC50) (37° C.) is 0.22 nM.

Consider `Cc1c(S(=O)(=O)c2ccc3[nH]ncc3c2)cc(C(=O)NCc2cccc3ncn(C4CC4)c23)n1C` [B.1], for which, for the setting “37° C.”, the IC50 was found to be 0.38 nM.

In the case of `Cc1c(S(=O)(=O)c2cc(F)c3[nH]ncc3c2)cc(C(=O)N[C@@H](C)c2cccc3cnn(C4CC4)c23)n1C` (single isomer, unassigned) [B.88], under “37° C.”, the IC50 was determined as 22 nM.

For the compound `Cc1c(S(=O)(=O)c2ccc3[nH]ncc3c2)cc(C(=O)N[C@@H]2CCN(c3ncc(F)cn3)C2)n1CCO` [A.90], for the setting “45 min at 37° C.”, the IC50 is < 0.15 nM.

As for `Cc1c(S(=O)(=O)c2ccc3[nH]ncc3c2)cc(C(=O)NCc2ncnc3ncn(C)c23)n1C` [B.129], the IC50 (37° C.) is < 0.15 nM.

Turning to `Cc1c(S(=O)(=O)c2ccc3[nH]ncc3c2)cc(C(=O)NCc2nccn2C)n1C` [B.131], the IC50 (37° C.) came to 79 nM.

For `Cc1c(S(=O)(=O)c2ccc3[nH]ncc3c2)cc(C(=O)N[C@@H]2CCN(c3cnccc3C#N)C2)n1C` [A.95], the 50% inhibitory concentration (IC50) (45 min at 37° C.) was < 0.15 nM.

In the case of `Cc1c(S(=O)(=O)c2ccc3[nH]ncc3c2)cc(C(=O)N[C@@H]2CCN(c3ncc(Cl)cn3)C2)n1C` [A.42], the IC50 (45 min at 37° C.) came to 0.42 nM.

Consider `Cc1c(S(=O)(=O)c2ccc3[nH]nc(F)c3c2)cc(C(=O)NCc2ccccc2N2CCC(F)(F)C2)n1C` [B.39], for which the IC50 (37° C.) was determined as 5.2 nM.

On to `Cc1c(S(=O)(=O)c2cc(F)c3[nH]ncc3c2)cc(C(=O)NCc2cccc(CN3CCCC3)c2)n1C` [B.59], for which the IC50 (37° C.) amounted to 41 nM.

Turning to `Cc1c(S(=O)(=O)c2cccc(C#N)c2)cc(C(=O)NCc2c(F)ccc3cnn(C)c23)n1C` [B.2], the half-maximal inhibitory concentration (IC50) (37° C.) was 0.61 nM.

For the origin of these results see patent US20260226034A1 (The Rockefeller University, priority 2023, published 2026).
